78 compounds from article PMC12064818, “A general assay platform to study protein pharmacology using ligand-dependent structural dynamics” (Nature Communications, 2025) can be followed below.

The target of the test is T1, FLuc-C-HiBiT (Photinus pyralis, UniProt P08659).
T1 construct: firefly luciferase with C-terminal HiBiT tag, E. coli expressed
The test can be described thus: biochemical. The settings on record: enzyme activity, 10 uM ATP; read-out: IC50 or SDR50 (mM) / FLuc E.

T1 sequence (P08659 whole entry, looked up): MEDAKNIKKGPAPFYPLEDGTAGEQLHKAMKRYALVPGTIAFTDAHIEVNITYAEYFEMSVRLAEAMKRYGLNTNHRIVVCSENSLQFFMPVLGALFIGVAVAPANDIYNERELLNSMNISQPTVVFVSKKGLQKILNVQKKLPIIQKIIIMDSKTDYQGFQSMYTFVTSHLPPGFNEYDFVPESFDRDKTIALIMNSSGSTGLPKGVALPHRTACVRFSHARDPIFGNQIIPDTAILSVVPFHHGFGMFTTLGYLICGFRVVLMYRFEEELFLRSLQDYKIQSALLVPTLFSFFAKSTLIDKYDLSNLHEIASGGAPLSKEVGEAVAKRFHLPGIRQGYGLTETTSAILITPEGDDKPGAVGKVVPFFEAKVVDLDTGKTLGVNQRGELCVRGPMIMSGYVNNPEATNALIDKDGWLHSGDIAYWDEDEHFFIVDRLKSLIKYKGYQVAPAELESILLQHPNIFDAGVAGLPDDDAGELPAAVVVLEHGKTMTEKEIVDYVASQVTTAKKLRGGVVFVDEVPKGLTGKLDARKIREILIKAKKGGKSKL

In the case of `CCOc1ccc2nc(N(Cc3cccnc3)C(=O)c3cccs3)sc2c1` [NCGC00136637-01], the IC50 was over 30 µM. The value for `CC(=O)c1ccc(NC(=O)CSc2nnc(NC(=O)Nc3ccccc3)s2)cc1` [NCGC00136900-01] was 0.881 µM. The value for `CCOc1ccc2nc(N3CCN(C(=O)c4ccco4)CC3)sc2c1` [NCGC00137033-01] was 12.4 µM; that for `CCCC(=O)N1CCN(c2nc3ccc(F)cc3s2)CC1` [NCGC00137065-01] was 11.1 µM; that for `Cc1c(CCNC(=O)c2ccc(Br)o2)sc2nc(-c3ccc(Cl)cc3)nn12` [NCGC00137117-01] was 12.4 µM. The value for `O=C(Nc1ccc2c(c1)OCCO2)c1cccn(Cc2ccccc2)c1=O` [NCGC00137349-01] was 11.1 µM. On to `Cc1cccn2c(=O)c(C(=O)NCCc3ccccc3)cnc12` [NCGC00137532-01], for which the IC50 came to 7 µM.

With `CN(C)c1cccc(C(=O)Nc2ccc(-c3nc4ccccc4s3)cc2)c1` [NCGC00137782-01], the IC50 turned out to be 8.81 µM. The value for `COc1cccc(CC(=O)Nc2ccc(-c3nc4ccccc4s3)cc2)c1` [NCGC00137800-01] was 8.81 µM. The value for `COc1cccc(C(=O)Nc2ccc(-c3nc4ccccc4s3)cc2Cl)c1` [NCGC00137802-01] was over 30 µM; that for `COc1ccc(CC(=O)Nc2ccc(-c3nc4ccccc4s3)cc2Cl)cc1OC` [NCGC00137804-01] was over 30 µM; that for `COc1cccc(CC(=O)Nc2ccc(-c3nc4ccccc4s3)cc2Cl)c1` [NCGC00137806-01] was over 30 µM.

Regarding `COc1ccc(CC(=O)Nc2ccc(-c3nc4ccccc4s3)cc2Cl)cc1` [NCGC00137808-01], the IC50 was over 30 µM. As for `Cc1cccc(C(=O)Nc2ccc(-c3nc4ccccc4s3)cc2Cl)c1` [NCGC00137810-01], the IC50 is over 30 µM. The value for `CCOc1cc(C(=O)Nc2ccc(-c3nc4ccccc4s3)cc2Cl)cc(OCC)c1OCC` [NCGC00137812-01] was 12.4 µM.

For `COc1cc(OC)cc(C(=O)Nc2ccc(-c3nc4ccccc4s3)c(C)c2)c1` [NCGC00137814-01], the IC50 is over 30 µM.

As for `COc1ccc(CC(=O)Nc2ccc(-c3nc4ccccc4s3)c(C)c2)cc1OC` [NCGC00137832-01], the IC50 was over 30 µM. On to `Cc1cc(NC(=O)c2ccccc2F)ccc1-c1nc2ccccc2s1` [NCGC00137834-01], for which the IC50 worked out at 2.48 µM.

Turning to `COc1ccc(CC(=O)Nc2ccc(-c3nc4ccccc4s3)c(C)c2)cc1` [NCGC00137836-01], the IC50 is over 30 µM.

For `Cc1cccc(C(=O)Nc2ccc(-c3nc4ccccc4s3)c(C)c2)c1` [NCGC00137838-01], the IC50 turned out to be 9.89 µM.

Regarding `COc1ccccc1C(=O)Nc1ccc(-c2nc3ccccc3s2)c(C)c1` [NCGC00137840-01], the IC50 stood at 9.89 µM.

On to `CCOc1ccc(C(=O)Nc2ccc(-c3nc4ccccc4s3)c(C)c2)cc1OCC` [NCGC00137842-01], for which the IC50 was over 30 µM. Take `COc1ccc2cc(-c3nc4ccc(C(=O)O)cc4[nH]3)c(=O)oc2c1` [NCGC00138156-01]: the IC50 stood at 0.0157 µM.

Take `CCOc1cccc2cc(-c3nc4ccc(C(=O)O)cc4[nH]3)c(=O)oc12` [NCGC00138160-01]: the IC50 was found to be 0.157 µM. Turning to `Cc1cccc(-n2ncc3c(N4CCCC(C)C4)ncnc32)c1` (stereo not drawn) [NCGC00138848-01], the IC50 is 0.7 µM.

Consider `Cc1ccc(Cl)cc1-n1ncc2c(N3CCC(C)CC3)ncnc21` [NCGC00138926-01], for which the IC50 is over 30 µM. As to `Cc1ccc(Cl)cc1-n1ncc2c(N3CCC(C(N)=O)CC3)ncnc21` [NCGC00138952-01], the IC50 was over 30 µM. The value for `Fc1ccc(-n2ncc3c(N4CCCCCC4)ncnc32)cc1` [NCGC00138953-01] was 1.24 µM; that for `Cc1ccc(-n2ncc3c(NC4CCCC4)ncnc32)cc1` [NCGC00138985-01] was 0.624 µM. As for `CCN(c1ncnc2c1cnn2-c1ccc(C)cc1)C1CCCCC1` [NCGC00138994-01], the IC50 was determined as 0.881 µM. `Cc1ccc(-n2ncc3c(N4CCN(C)CC4)ncnc32)cc1` [NCGC00139016-01]: the IC50 was determined as 5.56 µM. For `Cc1ccc(-n2ncc3c(N4CCCCCC4)ncnc32)cc1` [NCGC00139018-01], the IC50 came to 0.197 µM.

Consider `Cc1ccc(-n2ncc3c(N4CCC(Cc5ccccc5)CC4)ncnc32)cc1` [NCGC00139020-01], for which the IC50 is over 30 µM. The value for `Cc1ccc(-n2ncc3c(N4CCCCC4)ncnc32)cc1` [NCGC00139024-01] was 0.197 µM; that for `Cc1ccc(-n2ncc3c(N(C)Cc4ccccc4)ncnc32)cc1` [NCGC00139028-01] was 1.57 µM. Take `CC1CCN(c2ncnc3c2cnn3-c2ccc(F)cc2)CC1` [NCGC00139049-01]: the IC50 is 11.1 µM. With `CC1CCCN(c2ncnc3c2cnn3-c2ccc(F)cc2)C1` (stereo not drawn) [NCGC00139051-01], the IC50 came out at 0.7 µM. The value for `Fc1ccc(-n2ncc3c(N4CCC(Cc5ccccc5)CC4)ncnc32)cc1` [NCGC00139053-01] was over 30 µM. The value for `Cc1ccc(-n2ncc3c(N4CCC(C(N)=O)CC4)ncnc32)cc1` [NCGC00139056-01] was 12.4 µM. Consider `COCC(C)Nc1ncnc2c1cnn2-c1cccc(Cl)c1` (stereo not drawn) [NCGC00139080-01], for which the IC50 came out at 11.1 µM. Take `Cc1ccc(-n2ncc3c(NC4CCCCC4)ncnc32)cc1C` [NCGC00139081-01]: the IC50 stood at 1.76 µM. The value for `CCN(c1ncnc2c1cnn2-c1cccc(Cl)c1)C1CCCCC1` [NCGC00139112-01] was 5.56 µM; that for `Cc1ccc(-n2ncc3c(N4CCC(C)CC4)ncnc32)cc1C` [NCGC00139121-01] was 4.95 µM. The value for `Cc1ccc(-n2ncc3c(N4CCC(Cc5ccccc5)CC4)ncnc32)cc1C` [NCGC00139123-01] was over 30 µM; that for `Clc1cccc(-n2ncc3c(N4CCC(Cc5ccccc5)CC4)ncnc32)c1` [NCGC00139124-01] was over 30 µM; that for `Clc1cccc(-n2ncc3c(N4CCCCC4)ncnc32)c1` [NCGC00139126-01] was 0.989 µM.

For `Cc1ccc(-n2ncc3c(NC4CCCCC4)ncnc32)cc1Cl` [NCGC00139149-01], the IC50 was 2.79 µM.

For the compound `NC(=O)C1CCN(c2ncnc3c2cnn3-c2cccc(Cl)c2)CC1` [NCGC00139154-01], the IC50 was over 30 µM. The value for `Cc1cccc(-n2ncc3c(N4CCCCCC4)ncnc32)c1` [NCGC00139171-01] was 0.881 µM; that for `CCOC(=O)C1CCCN(c2ncnc3c2cnn3-c2ccc(C)c(Cl)c2)C1` (stereo not drawn) [NCGC00139179-01] was over 30 µM. The value for `Cc1ccc(-n2ncc3c(N4CCCCCC4)ncnc32)cc1Cl` [NCGC00139187-01] was 0.7 µM; that for `Cc1ccc(-n2ncc3c(N(C)C)ncnc32)cc1Cl` [NCGC00139189-01] was 2.21 µM; that for `Cc1ccc(-n2ncc3c(N4CCCCC4)ncnc32)cc1Cl` [NCGC00139209-01] was 0.785 µM. For the compound `Clc1ccc(-n2ncc3c(NC4CCCC4)ncnc32)cc1` [NCGC00139250-01], the IC50 was 1.24 µM. With `COc1ccc(-n2ncc3c(NC4CCCC4)ncnc32)cc1` [NCGC00139254-01], the IC50 is 1.76 µM.

Regarding `O=[S+]([O-])(c1cccc(C(F)(F)F)c1)n1c(/C=C/c2ccccc2)nc2ccccc21` [NCGC00139418-01], the IC50 is 0.556 µM.

In the case of `Cc1ccc(/C=C/c2nc3ccccc3[nH]2)cc1` [NCGC00139422-01], the IC50 came out at 0.0442 µM. Turning to `O=[S+]([O-])(c1cccc(Cl)c1)n1c(/C=C/c2ccccc2Cl)nc2ccccc21` [NCGC00139448-01], the IC50 worked out at 0.176 µM.

With `CSc1ccc(/C=C/c2nc3ccccc3n2[S+](=O)([O-])c2ccc(F)c(C)c2)cc1` [NCGC00139450-01], the IC50 came out at 0.7 µM.

For `Cc1cccc(N2CCN(C(=O)CSCc3ccc(F)cc3)CC2)c1C` [NCGC00140140-01], the IC50 is over 30 µM.

`Cc1ccc(/C=C/c2nc3ccccc3n2S(=O)(=O)c2cccc(Cl)c2)cc1` [NCGC00140605-01]: the IC50 amounted to 0.124 µM. The value for `Cc1ccc(/C=C/c2nc3ccccc3n2S(=O)(=O)c2ccc(Br)cc2)cc1` [NCGC00140607-01] was 0.624 µM; that for `CCc1ccc(C2=CC(c3cccc(C)c3)n3c(nc4ccccc43)N2)cc1` (stereo not drawn) [NCGC00140745-01] was 0.881 µM. The value for `Cc1ccc(C2=CC(c3ccccc3C)n3c(nc4ccccc43)N2)cc1` (stereo not drawn) [NCGC00140747-01] was 4.42 µM; that for `CC(C)c1ccc(C2=CC(c3ccc(C(C)C)cc3)n3nnnc3N2)cc1` (stereo not drawn) [NCGC00140789-01] was over 30 µM; that for `CCOC(=O)N1CCc2c(sc(NCc3cccc(F)c3)c2C(=O)Nc2ccc(OC)cc2OC)C1` [NCGC00140797-01] was 2.48 µM. As for `CCOC(=O)N1CCc2c(sc(NCc3cccs3)c2C(=O)Nc2ccc(OC)cc2OC)C1` [NCGC00140799-01], the IC50 worked out at 3.13 µM. The value for `CCOC(=O)N1CCc2c(sc(NCc3sccc3C)c2C(=O)Nc2ccc(OC)cc2OC)C1` [NCGC00140803-01] was 4.95 µM.

With `CCOC(=O)N1CCc2c(sc(NCc3ccc(OCC)cc3)c2C(=O)Nc2ccc(OC)cc2OC)C1` [NCGC00140805-01], the IC50 turned out to be 3.94 µM. The value for `Cc1ccc(C2=CC(c3ccccc3F)n3c(nc4ccccc43)N2)cc1C` (stereo not drawn) [NCGC00140809-01] was 3.13 µM. The value for `COc1ccc(NC(=O)c2cc3ccccc3o2)c(OC)c1` [NCGC00141077-01] was 4.95 µM; that for `COc1ccc(-c2nc3ccccc3s2)cc1NC(=O)c1cccc(F)c1` [NCGC00141116-01] was over 30 µM. The value for `COc1ccc(-c2nc3ccccc3s2)cc1NC(C)=O` [NCGC00141118-01] was 6.24 µM; that for `Cc1ccc(-c2nnc(SCc3ccccc3)o2)cc1` [NCGC00141131-01] was 11.1 µM.

As for `COc1ccccc1OCc1nc2ccccc2n1Cc1ccccc1` [NCGC00141136-01], the IC50 worked out at 14 µM. The value for `Cc1ccc(-c2cc(N)n(-c3ccc(C)cc3)n2)cc1` [NCGC00141302-01] was 9.89 µM.

Regarding `Cc1c(C(=O)Nc2ccc(C(=O)O)cc2)nnn1-c1ccccc1` [NCGC00141304-01], the IC50 is 0.0785 µM. Take `Cc1ccc2nc(-c3ccc(NC(=O)c4ccccc4S(C)(=O)=O)cc3)sc2c1` [NCGC00141658-01]: the IC50 was determined as 11.1 µM.
